In patent publication US9957297B2, “Template-fixed peptidomimetics as inhibitors of FPR1” (POLYPHOR AG, priority 2011, dated 2018):
Where a SMILES comes first, the peptide text is derived from it. Bridges are numbered along the chain shown (N, C = ends). [ ]: non-standard residue; d: D form. Oic = O=C(O)[C@@H]1C[C@@H]2CCCC[C@@H]2N1; Dab = NCC[C@H](N)C(=O)O

T1: FPR1 (Homo sapiens, UniProt P21462)
T1 construct: host or cells: CHO (PathHunter CHO-FPR1 β-arrestin cells)
T1 sequence (P21462 1-350): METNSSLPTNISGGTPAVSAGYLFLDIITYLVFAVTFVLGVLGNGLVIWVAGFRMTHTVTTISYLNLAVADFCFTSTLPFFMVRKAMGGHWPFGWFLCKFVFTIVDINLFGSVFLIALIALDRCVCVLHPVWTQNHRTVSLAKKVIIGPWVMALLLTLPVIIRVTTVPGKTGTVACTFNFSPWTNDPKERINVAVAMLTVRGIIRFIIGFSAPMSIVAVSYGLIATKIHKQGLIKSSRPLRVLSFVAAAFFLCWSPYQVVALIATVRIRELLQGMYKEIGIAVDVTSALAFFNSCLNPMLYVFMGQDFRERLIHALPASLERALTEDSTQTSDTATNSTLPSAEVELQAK

T2: Formyl-Peptide Receptor 1 (UniProt P21462 1-350, limits assumed)
T2 sequence (looked up): T1 sequence (P21462 1-350)


How the values were obtained:
[1] = biological target: T1, FPR1; test: FPR1 β-arrestin recruitment assay (PathHunter CHO-FPR1, antagonistic mode); format: cell-based; conditions: CHO FPR1 β-arrestin cells; antagonistic assay vs reference agonist fMLF at its EC80; 60 min preincubation
Method: 2.2 FPR1 β-Arrestin Recruitment Assay
The PathHunter CHO—FPR1 (DiscoverX) assay was performed according to the manufacturer's protocol. In brief, CHO FPR1 β-arrestin cells were seeded at a density of 9000 cells per well in 20 μl of Ham's F12 medium (Invitrogen) in black 384-well culture plates and incubated overnight at 37° C. in a humidified atmosphere with 5% CO2. The next day, serial dilutions of the β-hairpin peptidomimetics of this invention have been prepared in DMSO and subsequently diluted in HBSS buffer supplemented with 20 mM Hepes and 0.1% BSA.
For antagonistic assay, 5 μl of compound solution or buffer was added to the cells with a final DMSO concentration of 0.5% (v/v). The plate was incubated for 60 min at 37° C. with 5% CO2 before addition of […] of the reference agonist fMLF peptide (Sigma-Aldrich) at its EC80 concentration. After 90 min of incubation at 37° C. with 5% CO2, 15 μl of beta-Glo detection reagent (Promega) were added. Reaction was developed for 20 min at room temperature and chemiluminescence was measured with a Victor2V (Perkin Elmer) luminescence reader.

[2] = biological target: T2, Formyl-Peptide Receptor 1; test: cell-based or functional assay

| Molecule | IC50 [1] | β-Arrestin IC50 [2] |
| --- | --- | --- |
| CC[C@H](C)[C@@H]1NC(=O)[C@H]([C@@H](C)O)NC(=O)[C@H](Cc2c[nH]c3ccccc23)NC(=O)[C@@H](C)NC(=O)CNC(=O)[C@H](Cc2c[nH]cn2)NC(=O)[C@@H]2CSSC[C@H](NC1=O)C(=O)N[C@@H](Cc1ccc(O)cc1)C(=O)N[C@@H](CCC(=O)O)C(=O)N[C@@H](CCCCN)C(=O)N1CCC[C@@H]1C(=O)N[C@@H](CCC(=O)O)C(=O)N[C@@H](Cc1ccc(O)cc1)C(=O)N[C@@H](Cc1c[nH]cn1)C(=O)N[C@@H](CCCCN)C(=O)N2 [Ex. 4, cyclo(-Tyr-His-Lys-Cys-His-Gly-^DAla-Trp-Thr-Ile-Cys-Tyr-Glu-Lys-^DPro-Glu-)] (cyclo(YHKCHG[dA]WTICYEK[dP]E); disulfide 4-11) | 77 ± 22 nM |  |
| CC[C@H](C)[C@@H]1NC(=O)[C@H]([C@@H](C)O)NC(=O)[C@H](Cc2c[nH]c3ccccc23)NC(=O)[C@H]2CCCN2C(=O)CNC(=O)[C@H](Cc2c[nH]cn2)NC(=O)[C@@H]2CSSC[C@H](NC1=O)C(=O)N[C@@H](Cc1ccc(O)cc1)C(=O)N[C@@H](CCC(N)=O)C(=O)N[C@@H](CCCCN)C(=O)N1CCC[C@@H]1C(=O)N1CCC[C@H]1C(=O)N[C@@H](Cc1ccc(O)cc1)C(=O)N[C@@H](Cc1c[nH]cn1)C(=O)N[C@@H](Cc1c[nH]c3ccccc13)C(=O)N2 [Ex. 11, cyclo(-Tyr-His-Trp-Cys-His-Gly-^DPro-Trp-Thr-Ile-Cys-Tyr-Gln-Lys-^DPro-Pro-)] (cyclo(YHWCHG[dP]WTICYQK[dP]P); disulfide 4-11) | 177 ± 121 nM |  |
| CC[C@H](C)[C@@H]1NC(=O)[C@H]([C@@H](C)O)NC(=O)[C@H](Cc2c[nH]c3ccccc23)NC(=O)[C@H]2CCCN2C(=O)CNC(=O)[C@H](Cc2c[nH]c3ccccc23)NC(=O)[C@@H]2CSSC[C@H](NC1=O)C(=O)N[C@@H](Cc1ccc(O)cc1)C(=O)N[C@@H](CCC(N)=O)C(=O)N[C@@H](CCCCN)C(=O)N1CCC[C@@H]1C(=O)N1CCC[C@H]1C(=O)N[C@@H](Cc1ccc(O)cc1)C(=O)N[C@@H](Cc1c[nH]cn1)C(=O)N[C@@H](C)C(=O)N2 [Ex. 40, cyclo(-Tyr-His-Ala-Cys-Trp-Gly-^DPro-Trp-Thr-Ile-Cys-Tyr-Gln-Lys-^DPro-Pro-)] (cyclo(YHACWG[dP]WTICYQK[dP]P); disulfide 4-11) | 96 ± 30 nM |  |
| CC[C@H](C)[C@@H]1NC(=O)[C@H]([C@@H](C)O)NC(=O)[C@H](Cc2c[nH]c3ccccc23)NC(=O)[C@H]2CCCN2C(=O)CNC(=O)[C@H](Cc2c[nH]cn2)NC(=O)[C@@H]2CSSC[C@H](NC1=O)C(=O)N[C@@H](Cc1ccc(O)cc1)C(=O)N[C@@H](CCC(=O)O)C(=O)N[C@@H](CCCCN)C(=O)N1CCC[C@@H]1C(=O)N[C@@H](CCN)C(=O)N[C@@H](Cc1ccc(O)cc1)C(=O)N[C@@H](Cc1c[nH]cn1)C(=O)N[C@@H](CCCCN)C(=O)N2 [Ex. 89, cyclo(-Tyr-His-Lys-Cys-His-Gly-^DPro-Trp-Thr-Ile-Cys-Tyr-Glu-Lys-^DPro-Dab-)] (cyclo(YHKCHG[dP]WTICYEK[dP][Dab]); disulfide 4-11) | 189 ± 65 nM |  |
| CC[C@H](C)[C@@H]1NC(=O)[C@H]([C@@H](C)O)NC(=O)[C@H](Cc2c[nH]c3ccccc23)NC(=O)[C@H]2CCCN2C(=O)CNC(=O)[C@H](Cc2c[nH]cn2)NC(=O)[C@@H]2CSSC[C@H](NC1=O)C(=O)N[C@@H](Cc1ccc(O)cc1)C(=O)N[C@@H](CCC(=O)O)C(=O)N[C@@H](CCCCN)C(=O)N[C@H](CCCCN)C(=O)N[C@@H](CCC(=O)O)C(=O)N[C@@H](Cc1ccc(O)cc1)C(=O)N[C@@H](Cc1c[nH]cn1)C(=O)N[C@@H](CCCCN)C(=O)N2 [compound 5, cyclo(-Tyr-His-Lys-Cys-His-Gly-^DPro-Trp-Thr-Ile-Cys-Tyr-Glu-Lys-^DLys-Glu-)] (cyclo(YHKCHG[dP]WTICYEK[dK]E); disulfide 4-11) | 124 ± 67 nM |  |
| CC[C@H](C)[C@@H]1NC(=O)[C@H]([C@@H](C)O)NC(=O)[C@H](Cc2c[nH]c3ccccc23)NC(=O)[C@H]2CCCN2C(=O)CNC(=O)[C@H](Cc2c[nH]cn2)NC(=O)[C@@H]2CSSC[C@H](NC1=O)C(=O)N[C@@H](Cc1ccc(O)cc1)C(=O)N[C@@H](CCC(=O)O)C(=O)N[C@@H](CCCCN)C(=O)N[C@H](C)C(=O)N[C@@H](CCC(=O)O)C(=O)N[C@@H](Cc1ccc(O)cc1)C(=O)N[C@@H](Cc1c[nH]cn1)C(=O)N[C@@H](CCCCN)C(=O)N2 [compound 6, cyclo(-Tyr-His-Lys-Cys-His-Gly-^DPro-Trp-Thr-Ile-Cys-Tyr-Glu-Lys-^DAla-Glu-)] (cyclo(YHKCHG[dP]WTICYEK[dA]E); disulfide 4-11) | 124 ± 10 nM |  |
| CC[C@H](C)[C@@H]1NC(=O)[C@H]([C@@H](C)O)NC(=O)[C@H](Cc2c[nH]c3ccccc23)NC(=O)[C@H]2CCCN2C(=O)CNC(=O)[C@H](Cc2c[nH]cn2)NC(=O)[C@@H]2CSSC[C@H](NC1=O)C(=O)N[C@@H](Cc1ccc(O)cc1)C(=O)N[C@@H](CCC(=O)O)C(=O)N[C@@H](CCCCN)C(=O)N1CCC[C@@H]1C(=O)N1CCC[C@H]1C(=O)N[C@@H](Cc1ccc(O)cc1)C(=O)N[C@@H](Cc1c[nH]cn1)C(=O)N[C@@H](C)C(=O)N2 [compound 30, cyclo(-Tyr-His-Ala-Cys-His-Gly-^DPro-Trp-Thr-Ile-Cys-Tyr-Glu-Lys-^DPro-Pro-)] (cyclo(YHACHG[dP]WTICYEK[dP]P); disulfide 4-11) | 189 ± 79 nM |  |
| CC[C@H](C)[C@@H]1NC(=O)[C@H]([C@@H](C)O)NC(=O)[C@H](Cc2c[nH]c3ccccc23)NC(=O)[C@H]2CCCN2C(=O)CNC(=O)[C@H](Cc2c[nH]c3ccccc23)NC(=O)[C@@H]2CSSC[C@H](NC1=O)C(=O)N[C@@H]([C@@H](C)O)C(=O)N[C@@H](CCC(N)=O)C(=O)N[C@@H](CCCCN)C(=O)N1CCC[C@@H]1C(=O)N1CCC[C@H]1C(=O)N[C@@H](Cc1ccc(O)cc1)C(=O)N[C@@H](Cc1c[nH]cn1)C(=O)N[C@@H](C)C(=O)N2 [compound 34, cyclo(-Tyr-His-Ala-Cys-Trp-Gly-^DPro-Trp-Thr-Ile-Cys-Thr-Gln-Lys-^DPro-Pro-)] (cyclo(YHACWG[dP]WTICTQK[dP]P); disulfide 4-11) | 685 ± 68 nM |  |
| CC[C@H](C)[C@@H]1NC(=O)[C@H]([C@@H](C)O)NC(=O)[C@H](Cc2c[nH]c3ccccc23)NC(=O)[C@H]2CCCN2C(=O)CNC(=O)[C@H](Cc2c[nH]c3ccccc23)NC(=O)[C@@H]2CSSC[C@H](NC1=O)C(=O)N[C@@H](Cc1ccc(O)cc1)C(=O)N[C@@H](CCC(=O)O)C(=O)N[C@@H](CCCCN)C(=O)N[C@H](C)C(=O)N1CCC[C@H]1C(=O)N[C@@H](Cc1ccc(O)cc1)C(=O)N[C@@H](Cc1c[nH]cn1)C(=O)N[C@@H](CCCCN)C(=O)N2 [compound 42, cyclo(-Tyr-His-Lys-Cys-Trp-Gly-^DPro-Trp-Thr-Ile-Cys-Tyr-Glu-Lys-^DAla-Pro-)] (cyclo(YHKCWG[dP]WTICYEK[dA]P); disulfide 4-11) | 126 ± 78 nM |  |
| CC[C@H](C)[C@@H]1NC(=O)[C@H]([C@@H](C)O)NC(=O)[C@H](Cc2c[nH]c3ccccc23)NC(=O)[C@H]2CCCN2C(=O)CNC(=O)[C@H](Cc2c[nH]c3ccccc23)NC(=O)[C@@H]2CSSC[C@H](NC1=O)C(=O)N[C@@H](Cc1ccc(O)cc1)C(=O)N[C@@H](CCC(=O)O)C(=O)N[C@@H](CCCCN)C(=O)N[C@H](CCCCN)C(=O)N1CCC[C@H]1C(=O)N[C@@H](Cc1ccc(O)cc1)C(=O)N[C@@H](Cc1c[nH]cn1)C(=O)N[C@@H](CCCCN)C(=O)N2 [compound 43, cyclo(-Tyr-His-Lys-Cys-Trp-Gly-^DPro-Trp-Thr-Ile-Cys-Tyr-Glu-Lys-^DLys-Pro-)] (cyclo(YHKCWG[dP]WTICYEK[dK]P); disulfide 4-11) | 126 ± 53 nM |  |
| CC[C@H](C)[C@@H]1NC(=O)[C@H]([C@@H](C)O)NC(=O)[C@H](Cc2c[nH]c3ccccc23)NC(=O)[C@H]2CCCN2C(=O)CNC(=O)[C@H](Cc2c[nH]c3ccccc23)NC(=O)[C@@H]2CSSC[C@H](NC1=O)C(=O)N[C@@H](Cc1ccc(O)cc1)C(=O)N[C@@H](CCC(=O)O)C(=O)N[C@@H](CCCCN)C(=O)N1CCC[C@@H]1C(=O)N1CCC[C@H]1C(=O)N[C@@H](Cc1ccc(O)cc1)C(=O)N[C@@H](Cc1c[nH]cn1)C(=O)N[C@@H](CCCCN)C(=O)N2 [compound 51, cyclo(-Tyr-His-Lys-Cys-Trp-Gly-^DPro-Trp-Thr-Ile-Cys-Tyr-Glu-Lys-^DPro-Pro-)] (cyclo(YHKCWG[dP]WTICYEK[dP]P); disulfide 4-11) | 54 ± 21 nM |  |
| cyclo(YHKCHG[dP]WTICYEK[dP][Oic]) (disulfide 4-11) [cyclo(-Tyr-His-Lys-Cys-His-Gly-^DPro-Trp-Thr-Ile-Cys-Tyr-Glu-Lys-^DPro-Oic-)] |  | 267 nM |
